Laboratory results: patent US20110034551A1, “METHODS OF INCREASING SARCOSINE LEVELS FOR TREATING SCHIZOPHRENIA” (BG MEDICINE, INC., priority 2007, published 2011)
pIC50: −log10 of the molar value.

How the values were obtained:
glycine transport = conditions: other studies; read-out: IC50 for inhibition of glycine transport; cited from earlier work
[1] = biological target: T1, type 1 glycine transporter, GLYT1 (Rattus norvegicus, UniProt P28572); conditions: rat brain aggregates; Atkinson, et al. 2001; read-out: IC50 for inhibition of glycine transport; cited from earlier work
T1 construct: glycine transport in rat brain aggregates; host or cells: rat brain aggregates (endogenous protein)
T1 sequence (P28572 1-638): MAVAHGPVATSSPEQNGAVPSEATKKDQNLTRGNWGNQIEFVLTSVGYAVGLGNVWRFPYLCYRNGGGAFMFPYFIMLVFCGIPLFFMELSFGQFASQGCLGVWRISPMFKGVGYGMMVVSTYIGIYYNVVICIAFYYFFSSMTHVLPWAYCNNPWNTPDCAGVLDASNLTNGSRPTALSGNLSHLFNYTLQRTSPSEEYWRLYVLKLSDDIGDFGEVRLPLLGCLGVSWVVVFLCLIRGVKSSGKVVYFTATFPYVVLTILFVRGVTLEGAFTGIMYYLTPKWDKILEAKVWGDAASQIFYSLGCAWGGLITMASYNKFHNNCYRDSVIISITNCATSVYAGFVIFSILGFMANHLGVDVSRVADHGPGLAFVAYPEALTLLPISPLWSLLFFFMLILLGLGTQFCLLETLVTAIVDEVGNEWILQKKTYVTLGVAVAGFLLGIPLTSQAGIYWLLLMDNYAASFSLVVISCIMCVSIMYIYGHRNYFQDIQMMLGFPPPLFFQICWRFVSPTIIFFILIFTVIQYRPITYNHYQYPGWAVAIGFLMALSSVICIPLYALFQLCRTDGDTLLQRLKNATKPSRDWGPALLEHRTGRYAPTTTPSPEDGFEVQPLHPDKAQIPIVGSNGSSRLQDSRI

schizophrenia = conditions: 2 g/day as add-on therapy to certain antipsychotics (but not clozapine), schizophrenia patients; cited from earlier work
plasma sarcosine = assay: 28-day oral dosing study in rats, plasma sarcosine abundance by Polar LC/MS and GC/MS; format: in vivo, rat; conditions: 300 mg/kg daily oral, end of 28-day treatment
From the text: Fenofibrate (Sigma F-6020, Lot. 064K1584) and MPC-1 (Mitsubishi Pharma Corporation, Lot. F) were used in this study. These test substances were stored at room temperature.
Seventy-three male Crj:CD(SD)IGS rats (4.5 weeks old) were quarantined and acclimated for seven days after receipt. Two days before the initiation of dosing (Day −2), rats which had no abnormalities in clinical observation and body weight during the quarantine and acclimation period were selected and assigned to 5 groups using the stratified-by-weight randomization method to yield approximately the same mean body weights amongst the study groups.
The rats were dosed by oral gavage using a disposable stomach tube connecting to a syringe, at the dose volume of 5 mL/kg. The dosing was conducted once daily for 28 days. A control group was dosed with the vehicle only. Individual doses were calculated based on the most recently recorded body weights.
Preparation of dosing suspensions was as follows. The specified amount of test substance for each dose level was weighed and crushed with an agate mortar and a pestle. […]
Based on the total number of samples, the batches of samples were set up according to a batching scheme. Each sample was analyzed in duplicate. […] Each batch is analyzed in one analytical run. […]
All compounds eluting from the GC/MS column were detected in full scan mode. […]

SMILES | pIC50 (glycine transport) | pIC50 [1] | effect on symptoms of schizophrenia (schizophrenia) | median fold change in plasma sarcosine abundance relative to vehicle (plasma sarcosine; GC/MS platform) | median fold change in plasma sarcosine abundance relative to vehicle (plasma sarcosine; Polar LC/MS platform)
CNCC(=O)O [sarcosine, N-methylglycine] | ~4.00 | 4.89 | additional reductions in both positive and negative symptomatology | – | –
CC(C)OC(=O)C(C)(C)Oc1ccc(C(=O)c2ccc(Cl)cc2)cc1 [fenofibrate] | – | – | – | 3.74 | 4.25
